Assay results reported in PubChem BioAssay (NCI).
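The compound was tested at five concentrations on cells cultured in 96-well plates, with a 48-hour exposure period. GI50 = concentration required for 50% inhibition of growth. TGI marks complete inhibition of growth.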

Columns and labels:
Assay in all cases: inhibition of tumour cell growth, NCI panel, 48 h
[1] = tested on: OVCAR-5 ovarian
[2] = tested on: OVCAR-4 ovarian
[3] = tested on: EKVX NSCLC
[4] = tested on: SNB-19 CNS
[5] = tested on: HCT-15 colon
[6] = tested on: SF-268 CNS
[7] = tested on: MOLT-4 leukemia
[8] = tested on: RPMI-8226 leukemia
[9] = tested on: SK-MEL-28 melanoma
[10] = tested on: IGROV1 ovarian
[11] = tested on: M14 melanoma
[12] = tested on: MCF7 breast
[13] = tested on: MDA-MB-435
[14] = tested on: SF-295 CNS
[15] = tested on: SW-620 colon
[16] = tested on: OVCAR-8 ovarian
[17] = tested on: HCC-2998 colon
[18] = tested on: A498 renal
[19] = tested on: NCI/ADR-RES ovarian
[20] = tested on: HL-60(TB) leukemia
[21] = tested on: SNB-75 CNS
[22] = tested on: SF-539 CNS
[23] = tested on: HS 578T breast
[24] = tested on: SK-OV-3 ovarian
[25] = tested on: U251 CNS
[26] = tested on: 786-0 renal
[27] = tested on: MALME-3M melanoma
[28] = tested on: SK-MEL-5 melanoma
[29] = tested on: SN12C renal
[30] = tested on: NCI-H23 lung
[31] = tested on: T-47D breast
[32] = tested on: HT29 colon
[33] = tested on: A549 NSCLC
[34] = tested on: KM12 colon
[35] = tested on: SR leukemia
[36] = tested on: TK-10 renal
[37] = tested on: LOX IMVI melanoma
[38] = tested on: HOP-62 NSCLC
[39] = tested on: UO-31 renal
[40] = tested on: NCI-H460 lung
[41] = tested on: CAKI-1 renal
[42] = tested on: UACC-62 melanoma
[43] = tested on: COLO 205 colon
[44] = tested on: PC-3 prostate
[45] = tested on: RXF 393 renal
[46] = tested on: HOP-92 NSCLC
[47] = tested on: NCI-H226 lung
[48] = tested on: BT-549 breast
[49] = tested on: MDA-MB-231 breast
[50] = tested on: SK-MEL-2 melanoma
[51] = tested on: K-562 leukemia
[52] = tested on: DU-145 prostate
[53] = tested on: ACHN renal
[54] = tested on: CCRF-CEM leukemia
[55] = tested on: UACC-257 melanoma
[56] = tested on: HCT-116 colon
[57] = tested on: OVCAR-3 ovarian
[58] = tested on: NCI-H522 lung

`C=CC(=O)N1C/C(=C\c2ccc(OC)cc2)C(=O)/C(=C/c2ccc(OC)cc2)C1` gave a TGI [1] of 16.2 µM, a TGI [2] of 13.4 µM and a TGI [3] of 40.7 µM. The TGI [4] was 28.3 µM, the TGI [5] was 4.23 µM and the TGI [6] was 17.1 µM. The TGI [7] was > 27.8 µM, the TGI [8] was > 100 µM and the TGI [9] was 10.8 µM. For the same molecule, the TGI [10] was > 21.4 µM, the TGI [11] was 4.78 µM and the TGI [12] was 5.01 µM. For the same molecule, the TGI [13] was 7.76 µM, the TGI [14] was 6.98 µM and the TGI [15] was 8.02 µM. The TGI [16] was > 24.2 µM, the TGI [17] was 2.87 µM and the TGI [18] was 3.54 µM. For the same molecule, the TGI [19] was > 31 µM, the TGI [20] was > 100 µM and the TGI [21] was 27.3 µM. The TGI [22] was 3.53 µM, the TGI [23] was > 28.7 µM and the TGI [24] was 8.39 µM. For the same molecule, the TGI [25] was 6.43 µM, the TGI [26] was 4.17 µM and the TGI [27] was 8.4 µM. The TGI [28] was > 20.4 µM, the TGI [29] was 6.83 µM and the TGI [30] was 4.79 µM. The TGI [31] was > 100 µM, the TGI [32] was 2.88 µM and the TGI [33] was 8.16 µM. For the same molecule, the TGI [34] was 5.22 µM, the TGI [35] was > 100 µM and the TGI [36] was > 36.1 µM. For the same molecule, the TGI [37] was 3.37 µM, the TGI [38] was 11.2 µM and the TGI [39] was 3.52 µM. It also gave a TGI [40] of 6.82 µM, a TGI [41] of 11.7 µM and a TGI [42] of 4.37 µM. It also gave a TGI [43] of 9.99 µM, a TGI [44] of 4.19 µM and a TGI [45] of 3.23 µM. The TGI [46] was 27 µM, the TGI [47] was 4.6 µM and the TGI [48] was 6.24 µM. The TGI [49] was 7.98 µM, the TGI [50] was 8.57 µM and the TGI [51] was > 100 µM. The TGI [52] was 23.1 µM, the TGI [53] was 3.47 µM and the TGI [54] was > 25.7 µM. For the same molecule, the TGI [55] was > 31.6 µM, the TGI [56] was 0.686 µM and the TGI [57] was 5.67 µM.

`O=C(Nc1nc2c(C(F)(F)F)cccc2s1)c1cc(Cl)ccc1O` showed a GI50 [1] of 0.317 µM, a TGI [1] of 25.7 µM and a GI50 [2] of 0.34 µM. For the same molecule, the TGI [2] was > 100 µM, the GI50 [3] was 0.25 µM and the TGI [3] was 5.75 µM. The GI50 [4] was 0.345 µM, the TGI [4] was 65.6 µM and the GI50 [5] was 0.338 µM. For the same molecule, the TGI [5] was 13.2 µM, the GI50 [6] was 0.422 µM and the TGI [6] was > 100 µM. For the same molecule, the GI50 [7] was 0.318 µM, the TGI [7] was 1.21 µM and the GI50 [8] was 0.203 µM. For the same molecule, the TGI [8] was 0.52 µM, the GI50 [9] was 0.331 µM and the TGI [9] was 8.18 µM. The GI50 [10] was 0.511 µM, the TGI [10] was 35 µM and the GI50 [11] was 0.35 µM. It also gave a TGI [11] of 22.8 µM, a GI50 [12] of 0.302 µM and a TGI [12] of 27.5 µM. The GI50 [13] was 0.323 µM, the TGI [13] was > 100 µM and the GI50 [14] was 0.232 µM. It also gave a TGI [14] of 0.707 µM, a GI50 [15] of 0.364 µM and a TGI [15] of 16.3 µM. The GI50 [16] was 0.326 µM, the TGI [16] was 53.8 µM and the GI50 [17] was 0.451 µM. For the same molecule, the TGI [17] was 14.1 µM, the GI50 [18] was 0.181 µM and the TGI [18] was 0.519 µM. For the same molecule, the GI50 [19] was 0.311 µM, the TGI [19] was 21.6 µM and the GI50 [21] was 0.262 µM. The TGI [21] was 41.6 µM, the GI50 [22] was 0.286 µM and the TGI [22] was 1.96 µM. It also gave a GI50 [23] of 0.268 µM, a TGI [23] of 26.3 µM and a GI50 [24] of 0.236 µM. It also gave a TGI [24] of 0.797 µM, a GI50 [25] of 0.312 µM and a TGI [25] of 42.6 µM. The GI50 [26] was 0.337 µM, the TGI [26] was 12.2 µM and the GI50 [27] was 0.231 µM. For the same molecule, the TGI [27] was 0.641 µM, the GI50 [28] was 0.193 µM and the TGI [28] was 0.446 µM. For the same molecule, the GI50 [58] was 0.285 µM, the TGI [58] was 14 µM and the GI50 [29] was 0.289 µM. It also gave a TGI [29] of 1.53 µM, a GI50 [30] of 0.296 µM and a TGI [30] of 1.44 µM. The GI50 [31] was 0.245 µM, the TGI [31] was 0.783 µM and the GI50 [32] was 0.44 µM. For the same molecule, the TGI [32] was 13 µM, the GI50 [33] was 0.316 µM and the TGI [33] was > 100 µM. The GI50 [34] was 0.363 µM, the TGI [34] was 11.8 µM and the GI50 [35] was 0.353 µM. It also gave a TGI [35] of 3.28 µM, a GI50 [36] of 0.365 µM and a TGI [36] of 10.7 µM. The GI50 [37] was 0.32 µM, the TGI [37] was 10.8 µM and the GI50 [38] was 0.312 µM. For the same molecule, the TGI [38] was 19.3 µM, the GI50 [39] was 0.265 µM and the TGI [39] was 11.7 µM. It also gave a GI50 [40] of 0.32 µM, a TGI [40] of 10.8 µM and a GI50 [42] of 0.252 µM. It also gave a TGI [42] of 0.957 µM, a GI50 [43] of 0.52 µM and a TGI [43] of 2.42 µM. It also gave a GI50 [44] of 0.302 µM, a TGI [44] of 30.3 µM and a GI50 [45] of 0.257 µM. The TGI [45] was 0.772 µM, the GI50 [46] was 0.188 µM and the TGI [46] was 0.705 µM. For the same molecule, the GI50 [47] was 0.269 µM, the TGI [47] was 1.31 µM and the GI50 [48] was 0.305 µM. The TGI [48] was 1.79 µM, the GI50 [49] was 0.27 µM and the TGI [49] was 0.952 µM. The GI50 [51] was 0.327 µM, the TGI [51] was > 100 µM and the GI50 [52] was 0.466 µM. For the same molecule, the TGI [52] was > 100 µM, the GI50 [53] was 0.295 µM and the TGI [53] was 0.961 µM. The GI50 [54] was 0.328 µM, the TGI [54] was 12.5 µM and the GI50 [55] was 0.273 µM. It also gave a TGI [55] of 0.821 µM, a GI50 [56] of 0.352 µM and a TGI [56] of 11.2 µM. For the same molecule, the GI50 [57] was 0.375 µM and the TGI [57] was 74.7 µM.
